Reference: patent US7476380B2, “Methods for treating illnesses of the tracheo-bronchial tract, especially chronic obstructive pulmonary disease (COPD)” (GSE-Forschungszentrum fur Umwelt und Gesundheit GmbH, priority 2000, dated 2009)

Legend:
TIMP-1 [1] = assay: TIMP-1 in culture supernatant of alveolar macrophages (BAL cells), ELISA; assay type: cell-based; conditions: human alveolar macrophages; for TIMP-1 expression: 5 μM final, day 3 (day 4 the same), culture supernatant
Protocol: (§1) For this purpose, human alveolar macrophages (AMs) were obtained via bronchial lavage. The AMs were seeded into Mono Mac 6 medium+10% FCS onto a 24 well “low attachment” plate (Costar) using 1×10^6 cells in a volume of 1 ml per each sample. Additions of vitamin A liposomes or of the pure substances, respectively, were carried out. Cells for RT-PCR or culture supernatant for protein determinations by means of ELISA, respectively, were harvested from parallel samples each on day 1, day 3, and day 4. Specifically, the following samples were prepared: • β=control sample, AMs in medium only • Lipleer=empty liposomes • LipVitA=liposomes containing vitamin A (retinoic acid, Sigma R-2625) 5 μM final • VitA=pure vitamin A (retinoic acid, Sigma R-2625) 5 μM final • LipPalm=liposomes containing all-trans retinol palmitate (Sigma R-3375) 3 μM final • Palmitat=all-trans retinol palmitate (Sigma R-3375) 3 μM final
(§2) The culture supernatants were monitored for MMP-9 and TMP-1 content using commercial ELISA kits (Amersham Pharmacia). In each case the numerals refer to ng/ml culture supernatant based on 1×10^6 cells.
(§3) • RPMI 1640 (Biochrom # F1415, Berlin), L-glutamine 2 mM (Gibco # 25030-024), penicillin 200 U/ml, streptomycin 200 μg/ml (Gibco # 15140-114), non-essential amino acids (NEAA) 1-2x (Gibco # 11140-35), OPI supplement (contains oxalacetate, Na pyruvate and insulin) 10 ml per 1 liter (Sigma # O-5003). Following filtration through a Gabro ultrafilter U 2000 (Martinsried, Germany) to remove LPS addition of 10% FCS, LPS tested. • Costar low attachment 24 well plates # 3473 (Bodenheim, Germany) 1×10^6 BAL cells (=cells obtained by brocho-alveolar lavage containing alveolar macrophages in an amount of about 80%) or 1.5×10^6 PBMCs (=peripheral blood mononuclear cells isolated via LymphoPrep gradient (Nycomed, Norway)), respectively, in a volume of 1 ml were used per sample. Pretreat the 24 well low attachment cell culture plate according to the manufacturer's instructions. For this purpose, fill the respective wells with 1 ml of medium and incubate for 20 min at 37° C. in an incubator. Afterwards remove the medium and replace by cell suspension. Add the liposomes loaded with vitamin A in a final concentration of 5×10^−6 M. Prepare parallel samples with pure vitamin A and empty liposomes as controls. For the measurement of MMP-9 and TIMP-1 in the culture supernatant and for determination of mRNA expression incubate the cells in an incubator for three days at 37° C. Afterwards resuspend the cells carefully and first remove 2×10^4 cells per PCR lysate for lysis in 200 μl of RNAclean (AGS, Heidelberg, Germany)in an Eppendorf reaction vial. Store these PCR lysates at −20° C. until further use. Transfer the remaining cell suspension into an Eppendorf vial and centrifuge for 5 min at 14,000×g. Remove the supernatant, transfer into a fresh vial and store at −80° C. until measurement. Summary of the Samples: • 1. BAL cells or PBMCs, respectively without any addition • 2. BAL cells or PBMCs, respectively + empty liposomes • 3. BAL cells or PBMCs, respectively + liposomes vitA 5 μM final • 4. BAL cells or PBMCs, respectively pure vitA 5 μM final Determinations of MMP-9 and TIMP-1 on the Protein Level by ELISA
(§4) For the measurement of MMP-9 and TIMP-1 in cell culture supernatants commercially available ELISA kits of Amersham Pharmacia Biotech company (Freiburg, Germany) are used. […]

MMP-9 [2] = assay: MMP-9 expression in blood monocytes (PBMCs); assay type: cell-based, human
Protocol: as §3, with “Afterwards resuspend the cells carefully and first remove 2×10^4 cells per PCR lysate for lysis in 200 μl of RNAclean (AGS, Heidelberg, Germany)in an Eppendorf reaction vial. Store these PCR lysates at −20° C. until further use. Transfer the remaining cell suspension into an Eppendorf vial and centrifuge for 5 min at 14,000×g. Remove the supernatant, transfer into a fresh vial and store at −80° C. until measurement. Summary of the Samples: • 1. BAL cells or PBMCs, respectively without any addition • 2. BAL cells or PBMCs, respectively + empty liposomes • 3. BAL cells or PBMCs, respectively + liposomes vitA 5 μM final • 4. BAL cells or PBMCs, respectively pure vitA 5 μM final Determinations of MMP-9 and TIMP-1 on the Protein Level by ELISA” left out

TMP-1 = conditions: rat osteoblasts, depending on the dose; Overall 1995; cited from earlier work
MMP-9 [3] = assay: MMP-9 in culture supernatant of alveolar macrophages (BAL cells), ELISA; assay type: cell-based; conditions: human alveolar macrophages; for MMP-9 expression: 5 μM final, day 3 (day 4 the same), culture supernatant
Protocol: as §1, §2, §3, §4

metalloproteases = conditions: rat osteoblasts; Overall 1995; cited from earlier work
TIMP-1 [4] = assay: TIMP-1 expression in blood monocytes (PBMCs); assay type: cell-based, human
Protocol: as §3, with “Afterwards resuspend the cells carefully and first remove 2×10^4 cells per PCR lysate for lysis in 200 μl of RNAclean (AGS, Heidelberg, Germany)in an Eppendorf reaction vial. Store these PCR lysates at −20° C. until further use. Transfer the remaining cell suspension into an Eppendorf vial and centrifuge for 5 min at 14,000×g. Remove the supernatant, transfer into a fresh vial and store at −80° C. until measurement. Summary of the Samples: • 1. BAL cells or PBMCs, respectively without any addition • 2. BAL cells or PBMCs, respectively + empty liposomes • 3. BAL cells or PBMCs, respectively + liposomes vitA 5 μM final • 4. BAL cells or PBMCs, respectively pure vitA 5 μM final Determinations of MMP-9 and TIMP-1 on the Protein Level by ELISA” left out

[5] = test system: enzymes having gelatinase activities; conditions: Park and Kim, Mol. Cells 1999; cited from earlier work
TIMP = conditions: Heath et al. 1990; cited from earlier work
MMP-9/TIMP-1 = MMP-9/TIMP-1 ratio of alveolar macrophages (BAL cells); assay type: cell-based, human; conditions: day 3
Excerpt: There is increasing evidence that disorders in the protease/protease inhibitor equilibrium are the cause underlying the pathogenesis of chronic lung diseases. […] This is particularly true for patients suffering from chronic obstructive bronchitis (COPD). Among the MMPs in COPD, it is particularly the secretion of MMP-9 metalloprotease which is increased in the airways and alveoles and can no longer be completely neutralized by its natural antagonist TIMP-1 (tissue inhibitor of metalloprotease). […] An important criterion to determine the degree of the disturbance of the protease/antiprotease equilibrium is the proteinase-to-inhibitor ratio: MMP-9/TIMP-1.
For this purpose, human alveolar macrophages (AMs) were obtained via bronchial lavage. The AMs were seeded into Mono Mac 6 medium+10% FCS onto a 24 well “low attachment” plate (Costar) using 1×10^6 cells in a volume of 1 ml per each sample. Additions of vitamin A liposomes or of the pure substances, respectively, were carried out. Cells for RT-PCR or culture supernatant for protein determinations by means of ELISA, respectively, were harvested from parallel samples each on day 1, day 3, and day 4. […]
The culture supernatants were monitored for MMP-9 and TMP-1 content using commercial ELISA kits (Amersham Pharmacia). […]

[6] = day 1 following vitamin A addition

Compound | TIMP-1 expression (TIMP-1 [1]) | TIMP-1 expression (TIMP-1 [1]; listed as retinoic acid) | expression of MMP-9 metalloprotease (MMP-9 [2]) | mRNA levels of TMP-1 (TMP-1) | MMP-9 expression (MMP-9 [3]) | MMP-9 expression (MMP-9 [3]; listed as retinoic acid) | expression of metalloproteases (metalloproteases) | TIMP-1 inhibitor expression (TIMP-1 [4]) | activity of enzymes having gelatinase activities (metalloproteases) [5] | TIMP levels (TIMP) | TIMP-1 on the protein level, day 1 (TIMP-1 [1]; [6]) | effect on the MMP-9/TIMP-1 ratio (MMP-9/TIMP-1) | MMP-9 on the protein level, day 1 (MMP-9 [3]; [6])
CC1=C(/C=C/C(C)=C/C=C/C(C)=C/C(=O)O)C(C)(C)CCC1 [free vitamin A, all-trans retinoic acid] | increase | stimulation | clear inhibition | clearly reduced | strongly reduced | clear inhibition | increases | stimulation | increased |  |  |  | 
CC1=C(/C=C/C(C)=C/C=C/C(C)=C/CO)C(C)(C)CCC1 [retinol] | stimulation |  | clear inhibition |  | clear inhibition |  |  | stimulation |  | 0 |  |  | 
vitamin A | significantly stimulates |  |  |  | significantly inhibits |  |  |  |  |  | no effect | drastic effect | no effect
